The text below walks through data of US10468120B2, “Method of generating a hyperpigmentation condition gene expression signature” (The Procter & Gamble Company, priority 2012, dated 2019).

The test system of test [1] is Chinese females, 25-55 years old with hyperpigmented spots. Put plainly: 9-week randomized, double-blind, vehicle-controlled, split-face tone benefit study. Format: in vivo, human. Particulars: 0.05% in SC-99 vehicle, 2x a day, vs vehicle. From the text:
This Example provides evidence of the advantages of using composite signatures and illustrates clinical affirmation of the C-map model for predicting efficacy of skin-lightening agents. This Example supports embodiments related to composite signatures (as described at the end of Example 3). An illustrative “Skin Tone” Signature developed from a genomics study using a composite skin-lightening benchmark agent signature is derived from Niacinamide, Hexamidine, Sepiwhite, and NAG. The signature is used to query C-map and generate a list of potential skin-lightening agents. A top hit, Chlorhexidine Diactate (CD) is entered into clinical testing for confirmation of efficacy. The control for clinical efficacy is a 5% Niacinamide+1% Sepiwhite formulation in the control vehicle.
Primary endpoints are changes in color spot area fraction (image analysis) and melanin spot area fraction (NC2) from baseline. Secondary endpoints are changes from baseline in L*a*b (color image analysis), mean melanin gray scale (NC2), and melanin evenness (NC2). Texture area fraction and pore area fraction are also evaluated to explore impact on other aspects relating to overall skin tone. […] Statistically significant superiority to the high efficacy benchmark skin active agent to vehicle performance is the clinical success criteria.
Study Design: The experimental protocol included a 9-week (1-week preconditioning & 8-week treatment), randomized, double-blind, round robin, vehicle-controlled, split-face tone benefit study. The subject population included 330 Chinese females, 25-55 years old with hyperpigmented spots. 318 subjects completed the entire study. […] Olay Complete SPF 15 UV Moisturizing Lotion is concomitantly used during pre-conditioning and treatment. 0.5 g each test product per half-face (forehead to jaw line; ˜4 mg/cm^2) is dosed 2× a day (morning/evening). Color SAF and treatment area, Melanin SAF, gray scale, evenness by NC2, and additional measurement of Fine Lines and Wrinkle and Texture are by REAL 3.01A. Data collection points include baseline, and ends of weeks 4, 6 and 8. The tested hypothesis is that there is no difference in clinical endpoint versus the benchmark composition treatment. Study site is Kuntai Clinical Center, Beijing, China and study time frame is February 2010 (pre-conditioning) to April 2010.

The test system of test [2] is tert-Keratinocyte (tKC) cells. Put plainly: C-map query with the tone composite benchmark signature (Niacinamide, Hexamidine, Sepiwhite, NAG). The class given is cell-based, human. The following applies: composite signature of Example 3. The procedure:
Individual experiments (referred to as batches) generally comprise 30 to 96 samples analyzed using Affymetrix GeneChip® technology platforms, containing 6 replicates of the vehicle control (e.g., DSMO), 2 replicate samples of a positive control that gives a strong reproducible effect in the cell type used, and samples of the test material/perturbagen. Replication of the test material is done in separate batches due to batch effects. In vitro testing was performed in 6-well plates to provide sufficient RNA for GeneChip® analysis (2-4 μg total RNA yield/well).
Human telomerized keratinocytes (tKC) were obtained from the University of Texas, Southwestern Medical Center, Dallas, Tex. tKC cells were grown in EpiLife® media with 1× Human Keratinocyte Growth Supplement (Invitrogen, Carlsbad, Calif.) on collagen I coated cell culture flasks and plates (Becton Dickinson, Franklin Lakes, N.J.). Keratinocytes were seeded into 6-well plates at 20,000 cells/cm^2 24 hours before chemical exposure. Human skin fibroblasts (BJ cell line from ATCC, Manassas, Va.) were grown in Eagle's Minimal Essential Medium (ATCC) supplemented with 10% fetal bovine serum (HyClone, Logan, Utah) in normal cell culture flasks and plates (Corning, Lowell, Mass.). BJ fibroblasts were seeded into 6-well plates at 12,000 cells/cm^2 24 hours before chemical exposure. […]

Consider `CC(=O)O.CC(=O)O.NC(=N\CCCCCC/N=C(N)/N=C(\N)Nc1ccc(Cl)cc1)/N=C(\N)Nc1ccc(Cl)cc1` [CD, Chlorhexidine Diacetate], for which, in test [1] (week 8), the Basal skin tone result is listed as “demonstrated superiority”, the Pore area fraction result is “superior efficacy” and the Texture area fraction result is recorded as “superior efficacy”. Further, in test [1] (weeks 6 and 8), the “NC2 Melanin evenness test” value is on record as “superiority to the vehicle” and the “spot area fraction NC2 test” value is listed as “significantly reduced fraction when compared to the vehicle”. For the same compound, the “connectivity to the tone composite benchmark signature query” value in test [2] was “top connectivity hit”.
